Molecular target: T1, recombinant human 15-PGDH (Homo sapiens, UniProt P15428)
T1 construct: purchased R&D Systems
T1 sequence (P15428 1-266): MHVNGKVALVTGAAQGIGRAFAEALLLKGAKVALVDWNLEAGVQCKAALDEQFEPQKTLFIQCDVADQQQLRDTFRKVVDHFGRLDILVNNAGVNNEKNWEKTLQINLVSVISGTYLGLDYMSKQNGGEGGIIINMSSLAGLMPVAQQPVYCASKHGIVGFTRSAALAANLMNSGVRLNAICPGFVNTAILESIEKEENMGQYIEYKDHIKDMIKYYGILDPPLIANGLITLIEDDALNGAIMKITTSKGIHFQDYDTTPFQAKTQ
Experiment: 15-PGDH enzyme inhibition test
Type: biochemical
Conditions: 4 nM recombinant human 15-PGDH, 30 μM PGE2, 1 mM NAD+, 60 minutes after starting the reaction; read-out: IC50 Value
Protocol: 15-PGDH Enzyme Inhibition Test
A test compound and 4 nM recombinant human 15-PGDH (R&D Systems) were added, in 50 mM Tris-HCl (pH 8.0) containing 0.01% TWEEN 20 (Sigma) and 0.01% bovine gamma globulin (Sigma), to a 384-well Flat Bottom Black plate (Corning, 3820), and the resultant was allowed to stand still at room temperature for 12 minutes, and 30 μM PGE2 (Cayman Chemical) and 1 mM NAD+ (Sigma) were added thereto to start the reaction. 60 minutes after starting the reaction, measurement was performed using Synergy 2 (BioTeck) at an excitation wavelength of 340 nm and a fluorescence wavelength of 440 nm. Assuming that a fluorescence signal obtained with an assay buffer added instead of the test compound and NAD+ was 100% and that a signal obtained with NAD+ added was 0%, a concentration corresponding to 50% inhibition plotted on a concentration-reaction curve of the test compound was defined as an IC50 value. Incidentally, in the following tables, an IC50 value smaller than 10 nM was shown as +++, an IC50 value equal to or larger than 10 nM and smaller than 100 nM was shown as ++, and an IC50 value equal to or larger than 100 nM was shown as +.

SMILES | IC50
CC1c2cc(N3CCOc4cc(C(=O)N5CCCCC5)cnc43)ccc2C(=O)N1C (single isomer, unassigned) [16-1 Isomer A] | < 0.01 µM
CC1c2cc(N3CCOc4cc(C(=O)N5CCCCC5)cnc43)ccc2C(=O)N1C (single isomer, unassigned) [16-1 Isomer B, 2,3-Dimethyl-5-(7-(piperidine-1-carbonyl)-2,3-dihydro-4H-pyrido[3,2-b] [1,4]oxazin-4-yl)isoindolin-1-one] | < 0.01 µM
Cn1nc2cc(N3CCOc4cc(C(=O)N5CCCC6CC65)cnc43)ccn2c1=O (single isomer, unassigned) [23-1 Isomer A, 7-(7-(2-Azabicyclo[4,1,0]heptane-2-carbonyl)-2,3-dihydro-4H-pyrido[3,2-b][1,4]oxazin-4-yl)-2-methyl-[1,2,4]triazolo[4,3-a]pyridin-3(2H)-one] | < 0.01 µM
Cn1nc2cc(N3CCOc4cc(C(=O)N5CCCC6CC65)cnc43)ccn2c1=O (single isomer, unassigned) [23-1 Isomer B, 7-(7-(2-Azabicyclo[4,1,0]heptane-2-carbonyl)-2,3-dihydro-4H-pyrido[3,2-b][1,4]oxazin-4-yl)-2-methyl-[1,2,4]triazolo[4,3-a]pyridin-3(2H)-one] | < 0.01 µM
Cn1nc2cc(N3CCOc4cc(C(=O)N5CCCC(C)(F)C5)cnc43)ccn2c1=O (single isomer, unassigned) [23-2 Isomer A] | < 0.01 µM
Cn1nc2cc(N3CCOc4cc(C(=O)N5CCCC(C)(F)C5)cnc43)ccn2c1=O (single isomer, unassigned) [23-2 Isomer B] | < 0.01 µM
COC(=O)c1ccc(N2CCOc3cc(C(=O)N4CCCCC4)ccc32)cc1 [Example 1-7] | < 0.01 µM
N#Cc1ccc(N2CCOc3cc(C(=O)N4CCC(F)(F)CC4)ccc32)cc1 [Example 1-17] | < 0.01 µM
O=C(c1ccc2c(c1)OCCN2c1ccccc1)N1CCCCC1 [Example 1-18] | < 0.01 µM
Cn1oc2cc(N3CCOc4cc(C(=O)N5CCCCC5)cnc43)ccc2c1=O [Example 1-19] | < 0.01 µM
COc1noc2cc(N3CCOc4cc(C(=O)N5CCCCC5)cnc43)ccc12 [Example 1-20] | < 0.01 µM
Cn1nc2cc(N3CCOc4cc(C(=O)N5CCCCC5)cnc43)ccn2c1=O [Example 1-21] | < 0.01 µM
COCn1nc2cc(N3CCOc4cc(C(=O)N5CCCCC5)cnc43)ccn2c1=O [Example 1-22] | < 0.01 µM
CN1Cc2cc(N3CCOc4cc(C(=O)N5CCCCC5)cnc43)ccc2C1=O [Example 1-23] | < 0.01 µM
COC(=O)c1cc2sc(N3CCOc4cc(C(=O)N5CCCCC5)cnc43)cc2s1 [Example 1-24] | < 0.01 µM
Cn1nc2cc(N3CCOc4cc(C(=O)N5CCCCC5)ccc43)ccn2c1=O [Example 1-25] | < 0.01 µM
Cc1cn2ccc(N3CCOc4cc(C(=O)N5CCCCC5)cnc43)cc2n1 [Example 1-26] | 0.01 to 0.1 µM
CC(C)n1nc2cc(N3CCOc4cc(C(=O)N5CCCCC5)cnc43)ccn2c1=O [Example 1-27] | < 0.01 µM
COCCn1nc2cc(N3CCOc4cc(C(=O)N5CCCCC5)cnc43)ccn2c1=O [Example 1-28] | < 0.01 µM
Cn1nc2c(Cl)c(N3CCOc4cc(C(=O)N5CCCCC5)cnc43)ccn2c1=O [Example 1-29] | < 0.01 µM
O=C(c1cnc2c(c1)OCCN2c1ccn2c(=O)[nH]nc2c1)N1CCCCC1 [Example 1-30] | < 0.01 µM
O=C(c1cnc2c(c1)OCCN2c1ccn2c(=O)n(Cc3ccccc3)nc2c1)N1CCCCC1 [Example 1-31] | < 0.01 µM
O=C(c1cnc2c(c1)OCCN2c1ccn2c(=O)n(Cc3cccnc3)nc2c1)N1CCCCC1 [Example 1-32] | < 0.01 µM
CN(C)CCn1nc2cc(N3CCOc4cc(C(=O)N5CCCCC5)cnc43)ccn2c1=O [Example 1-33] | < 0.01 µM
O=C(c1cnc2c(c1)OCCN2c1ccn2c(=O)n(Cc3ccncc3)nc2c1)N1CCCCC1 [Example 1-34] | < 0.01 µM
O=C(c1cnc2c(c1)OCCN2c1ccn2c(=O)n(-c3ccccn3)nc2c1)N1CCCCC1 [Example 1-35] | < 0.01 µM

SMILES | IC50
O=C(c1cnc2c(c1)OCCN2c1ccn2c(=O)n(CC3COC3)nc2c1)N1CCCCC1 [Example 1-36] | < 0.01 µM
COc1ccc(CN2Cc3cc(N4CCOc5cc(C(=O)N6CCCCC6)cnc54)ccc3C2=O)cc1 [Example 1-37] | < 0.01 µM
Cn1cnc2cc(N3CCOc4cc(C(=O)N5CCCCC5)cnc43)cnc2c1=O [Example 1-38] | < 0.01 µM
Cn1cnc2cc(N3CCOc4cc(C(=O)N5CCCCC5)cnc43)ncc2c1=O [Example 1-39] | 0.01 to 0.1 µM
COC(=O)Cn1nc2cc(N3CCOc4cc(C(=O)N5CCCCC5)cnc43)ccn2c1=O [Example 1-40] | < 0.01 µM
COCn1nc2cc(N3CCOc4cc(C(=O)N5CCC[C@H](C)C5)cnc43)ccn2c1=O [Example 1-41] | < 0.01 µM
C[C@H]1CCCN(C(=O)c2cnc3c(c2)OCCN3c2ccn3c(=O)[nH]nc3c2)C1 [Example 1-42] | < 0.01 µM
COCn1nc2cc(N3CCOc4cc(C(=O)N5CCC(F)(F)CC5)cnc43)ccn2c1=O [Example 1-43] | < 0.01 µM
CCOCn1nc2cc(N3CCOc4cc(C(=O)N5CCC(F)(F)CC5)cnc43)ccn2c1=O [Example 1-44] | < 0.01 µM
CN1Cc2cc(N3CCOc4cc(C(=O)N5CCC(F)(F)CC5)cnc43)cnc2C1=O [Example 1-45] | < 0.01 µM
CN1Cc2cc(N3CCOc4cc(C(=O)N5CCC(F)(F)CC5)cnc43)ncc2C1=O [Example 1-46] | 0.01 to 0.1 µM
COCCn1nc2cc(N3CCOc4cc(C(=O)N5CCC(F)(F)CC5)cnc43)ccn2c1=O [Example 1-47] | < 0.01 µM
CCOCCn1nc2cc(N3CCOc4cc(C(=O)N5CCC(F)(F)CC5)cnc43)ccn2c1=O [Example 1-48] | < 0.01 µM
COCCN1Cc2cc(N3CCOc4cc(C(=O)N5CCC(F)(F)CC5)cnc43)ccc2C1=O [Example 1-49] | < 0.01 µM
CCOCCN1Cc2cc(N3CCOc4cc(C(=O)N5CCC(F)(F)CC5)cnc43)ccc2C1=O [Example 1-50] | < 0.01 µM
CCOCCN1Cc2cc(N3CCOc4cc(C(=O)N5CCC(F)(F)CC5)cnc43)ncc2C1=O [Example 1-51] | 0.01 to 0.1 µM
COCn1nc2cc(N3CCCOc4cc(C(=O)N5CCCCC5)cnc43)ccn2c1=O [Example 1-52] | < 0.01 µM
COCn1nc2cc(N3CCCc4cc(C(=O)N5CCCCC5)cnc43)ccn2c1=O [Example 1-53] | < 0.01 µM
CCn1nc2cc(N3CCCc4cc(C(=O)N5CCCCC5)cnc43)ccn2c1=O [Example 1-54] | < 0.01 µM
COCCn1nc2cc(N3CCCc4cc(C(=O)N5CCCCC5)cnc43)ccn2c1=O [Example 1-55] | < 0.01 µM
CN1Cc2cc(N3CCCc4cc(C(=O)N5CCCCC5)cnc43)ncc2C1=O [Example 1-56] | 0.01 to 0.1 µM
CCOCn1nc2cc(N3CCCc4cc(C(=O)N5CCCCC5)cnc43)ccn2c1=O [Example 1-57] | < 0.01 µM
O=C(c1cnc2c(c1)CCCN2c1ccn2c(=O)n(CC3COC3)nc2c1)N1CCCCC1 [Example 1-58] | < 0.01 µM
CNC(=O)c1ccc(N2CCCc3cc(C(=O)N4CCCCC4)cnc32)cc1F [Example 1-59] | < 0.01 µM
COCCNC(=O)c1ccc(N2CCCc3cc(C(=O)N4CCCCC4)cnc32)cc1F [Example 1-60] | < 0.01 µM
O=C(NCC1COC1)c1ccc(N2CCCc3cc(C(=O)N4CCCCC4)cnc32)cc1F [Example 1-61] | < 0.01 µM
